From patent US9833497B2, “Human originated EGF domain proteins and use of the same” (CHENGDU SOURCEBIO LIMITED-LIABILITY COMPANY, priority 2013, dated 2017)

What was measured:
Assay type in all cases: cell-based
E. coli BL21 = assay: MIC against Gram-negative bacteria: E. coli BL21; settings: for MIC against E. coli BL21 / MIC (μg/mL) E. coli BL21 / MIC E. coli BL21: 5×10^5 CFU/mL
Summary of the method: (§1)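 Inocula prepared by growing LB cultures at 37° C to 0.5 McFarland, centrifuging at 4000×g, and resuspending in fresh medium. Final density 5×10^5 CFU/mL per well with two-fold dilutions of purified EGF domain protein; shaking incubation at 37° C.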

Klebsiella pneumonia = assay: MIC against Gram-negative bacteria: Klebsiella pneumonia; settings: for MIC against K. pneumonia / MIC (μg/mL) K. pneumonia / MIC K. pneumonia: 5×10^5 CFU/mL
Summary of the method: as §1

Citrobacter diversus = assay: MIC against Gram-negative bacteria: Citrobacter diversus; settings: for MIC against C. diversus / MIC (μg/mL) C. diversus / MIC C. diversus: 5×10^5 CFU/mL
Summary of the method: as §1

Serratia marcescens = assay: MIC against Gram-negative bacteria: Serratia marcescens; settings: for MIC against S. marcescens / MIC (μg/mL) S. marcescens / MIC S. marcescens: 5×10^5 CFU/mL
Summary of the method: as §1

Proteus mirabilis = assay: MIC against Gram-negative bacteria: Proteus mirabilis; settings: for MIC against P. mirabilis / MIC (μg/mL) P. mirabilis / MIC P. mirabilis: 5×10^5 CFU/mL
Summary of the method: as §1

Moraxella catarrhalis = assay: MIC against Gram-negative bacteria: Moraxella catarrhalis; settings: for MIC against M. catarrhalis / MIC (μg/mL) M. catarrhalis / MIC M. catarrhalis: 5×10^5 CFU/mL
Summary of the method: as §1

Enterobacter cloacae = assay: MIC against Gram-negative bacteria: Enterobacter cloacae; settings: for MIC against E. cloacae / MIC (μg/mL) E. cloacae / MIC E. cloacae: 5×10^5 CFU/mL
Summary of the method: as §1

Aeromonas hydrophila = assay: MIC against Gram-negative bacteria: Aeromonas hydrophila; settings: for MIC against A. hydrophila / MIC (μg/mL) A. hydrophila / MIC A. hydrophila: 5×10^5 CFU/mL
Summary of the method: as §1

Proteus vulgaris = assay: MIC against Gram-negative bacteria: Proteus vulgaris; settings: for MIC against P. vulgaris / MIC (μg/mL) P. vulgaris / MIC P. vulgaris: 5×10^5 CFU/mL
Summary of the method: as §1

E. coli DH5α = assay: Antibacterial activity: MIC and growth curve against E. coli DH5α in 96-well plate; settings: minimal inhibitory concentration against E. coli DH5α; 96-well plate, 5×10^5 CFU/mL, 37° C., judged after 8 h
Summary of the method: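 Log-phase bacteria (OD600 ~0.5) resuspended in LB at 5×10^5 CFU/mL, exposed to recombinant protein at 50, 25, 12.5 μg/mL final in triplicate, 37 °C shaking at 175 rpm. OD600 read every 30 min; MIC is lowest concentration showing no growth.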

Pseudomonas aeruginosa = assay: MIC against Gram-negative bacteria: Pseudomonas aeruginosa; settings: for MIC against P. aeruginosa / MIC (μg/mL) P. aeruginosa / MIC P. aeruginosa: 5×10^5 CFU/mL
Summary of the method: as §1

[1] = E. coli BL21, 10 h cultivation at 37° C.
[2] = K. pneumonia, 10 h cultivation at 37° C.
[3] = C. diversus, 10 h cultivation at 37° C.
[4] = S. marcescens, 10 h cultivation at 37° C.
[5] = P. mirabilis, 10 h cultivation at 37° C.
[6] = M. catarrhalis, 10 h cultivation at 37° C.
[7] = E. cloacae, 10 h cultivation at 37° C.
[8] = A. hydrophila, 10 h cultivation at 37° C.
[9] = P. vulgaris, 10 h cultivation at 37° C.
[10] = P. aeruginosa, 10 h cultivation at 37° C.
[11] = 10 h cultivation at 37° C., two-fold serial dilution

## PRT1394 (VRDGCPGLCFGNGRCTLDQNGWHCVCQVGWSGTGCN; listed as Homo sapiens)
E. coli BL21; [1]
  MIC against E. coli BL21: 12.5 µg/mL
Klebsiella pneumonia; Klebsiella pneumonia, 10 h cultivation at 37° C.
  MIC against K. pneumonia: 50 µg/mL
Citrobacter diversus; Citrobacter diversus, 10 h cultivation at 37° C.
  MIC against C. diversus: 50 µg/mL
Serratia marcescens; Serratia marcescens, 10 h cultivation at 37° C.
  MIC against S. marcescens: 50 µg/mL
Proteus mirabilis; Proteus mirabilis, 10 h cultivation at 37° C.
  MIC against P. mirabilis: 12.5 µg/mL
Moraxella catarrhalis; Moraxella catarrhalis, 10 h cultivation at 37° C.
  MIC against M. catarrhalis: 25 µg/mL
Enterobacter cloacae; Enterobacter cloacae, 10 h cultivation at 37° C.
  MIC against E. cloacae: 12.5 µg/mL
Aeromonas hydrophila; Aeromonas hydrophila, 10 h cultivation at 37° C.
  MIC against A. hydrophila: 25 µg/mL
Proteus vulgaris; Proteus vulgaris, 10 h cultivation at 37° C.
  MIC against P. vulgaris: 25 µg/mL
E. coli DH5α
  MIC: 50 µg/mL
Pseudomonas aeruginosa; Pseudomonas aeruginosa, 10 h cultivation at 37° C.
  MIC against P. aeruginosa: 12.5 µg/mL

## PRT181 (RADPCAARPCAHGGRCYAHFSGLVCACAPGYMGARCE; listed as Homo sapiens)
E. coli BL21; [1]
  MIC (μg/mL) E. coli BL21: 50 µg/mL
Klebsiella pneumonia; [2]
  MIC (μg/mL) K. pneumonia: 12.5 µg/mL
Citrobacter diversus; [3]
  MIC (μg/mL) C. diversus: 25 µg/mL
Serratia marcescens; [4]
  MIC (μg/mL) S. marcescens: 25 µg/mL
Proteus mirabilis; [5]
  MIC (μg/mL) P. mirabilis: 25 µg/mL
Moraxella catarrhalis; [6]
  MIC (μg/mL) M. catarrhalis: 12.5 µg/mL
Enterobacter cloacae; [7]
  MIC (μg/mL) E. cloacae: 25 µg/mL
Aeromonas hydrophila; [8]
  MIC (μg/mL) A. hydrophila: 50 µg/mL
Proteus vulgaris; [9]
  MIC (μg/mL) P. vulgaris: 50 µg/mL
E. coli DH5α
  MIC: 25 µg/mL
Pseudomonas aeruginosa; [10]
  MIC (μg/mL) P. aeruginosa: 25 µg/mL

## PRT584 (CQCSHEGALSSLCEKTSGQCLCRTGAFGLRCDRCQRGQWGFPSCRP; listed as Homo sapiens)
E. coli BL21; 96-well plate, 37° C., 10 h
  MIC against E. coli BL21: 50 µg/mL
Klebsiella pneumonia; 96-well plate, 37° C., 10 h
  MIC against K. pneumonia: 50 µg/mL
Citrobacter diversus; 96-well plate, 37° C., 10 h
  MIC against C. diversus: 25 µg/mL
Serratia marcescens; 96-well plate, 37° C., 10 h
  MIC against S. marcescens: 25 µg/mL
Proteus mirabilis; 96-well plate, 37° C., 10 h
  MIC against P. mirabilis: 25 µg/mL
Moraxella catarrhalis; 96-well plate, 37° C., 10 h
  MIC against M. catarrhalis: 50 µg/mL
Enterobacter cloacae; 96-well plate, 37° C., 10 h
  MIC against E. cloacae: 25 µg/mL
Aeromonas hydrophila; 96-well plate, 37° C., 10 h
  MIC against A. hydrophila: 50 µg/mL
Proteus vulgaris; 96-well plate, 37° C., 10 h
  MIC against P. vulgaris: 50 µg/mL
E. coli DH5α
  MIC: 50 µg/mL
Pseudomonas aeruginosa; 96-well plate, 37° C., 10 h
  MIC against P. aeruginosa: 25 µg/mL

## PRT32 (RCEAQKWGPECNHLCTACMNNGVCHEDTGECICPPGFMGRTCE; listed as Homo sapiens)
E. coli BL21; E. coli BL21, 96-well plate, 37° C., 10 h
  MIC (μg/mL) E. coli BL21: 50 µg/mL
Klebsiella pneumonia; Klebsiella pneumonia, 96-well plate, 37° C., 10 h
  MIC (μg/mL) K. pneumonia: 12.5 µg/mL
Citrobacter diversus; Citrobacter diversus, 96-well plate, 37° C., 10 h
  MIC (μg/mL) C. diversus: 12.5 µg/mL
Serratia marcescens; Serratia marcescens, 96-well plate, 37° C., 10 h
  MIC (μg/mL) S. marcescens: 50 µg/mL
Proteus mirabilis; Proteus mirabilis, 96-well plate, 37° C., 10 h
  MIC (μg/mL) P. mirabilis: 12.5 µg/mL
Moraxella catarrhalis; Moraxella catarrhalis, 96-well plate, 37° C., 10 h
  MIC (μg/mL) M. catarrhalis: 50 µg/mL
Enterobacter cloacae; Enterobacter cloacae, 96-well plate, 37° C., 10 h
  MIC (μg/mL) E. cloacae: 25 µg/mL
Aeromonas hydrophila; Aeromonas hydrophila, 96-well plate, 37° C., 10 h
  MIC (μg/mL) A. hydrophila: 50 µg/mL
Proteus vulgaris; Proteus vulgaris, 96-well plate, 37° C., 10 h
  MIC (μg/mL) P. vulgaris: 25 µg/mL
E. coli DH5α
  MIC: 12.5 µg/mL
Pseudomonas aeruginosa; Pseudomonas aeruginosa, 96-well plate, 37° C., 10 h
  MIC (μg/mL) P. aeruginosa: 12.5 µg/mL

## PRT1041 (VPLCAQECVHGRCVAPNQCQCVPGWRGDDCS; listed as Homo sapiens)
E. coli BL21; [1]
  MIC: 25 µg/mL
Klebsiella pneumonia; [2]
  MIC: 25 µg/mL
Citrobacter diversus; [3]
  MIC: 12.5 µg/mL
Serratia marcescens; [4]
  MIC: 25 µg/mL
Proteus mirabilis; [5]
  MIC: 25 µg/mL
Moraxella catarrhalis; [6]
  MIC: 50 µg/mL
Enterobacter cloacae; [7]
  MIC: 50 µg/mL
Aeromonas hydrophila; [8]
  MIC: 50 µg/mL
Proteus vulgaris; [9]
  MIC: 50 µg/mL
E. coli DH5α
  MIC: 12.5 µg/mL
Pseudomonas aeruginosa; [10]
  MIC: 50 µg/mL

## PRT1155 (QSVSCLNNLCLHQSLCIPDQSFSYSCLCTLGWVGRYCE; listed as Homo sapiens)
E. coli BL21; [11]
  MIC E. coli BL21: 12.5 µg/mL
Klebsiella pneumonia; [11]
  MIC K. pneumonia: 12.5 µg/mL
Citrobacter diversus; [11]
  MIC C. diversus: 12.5 µg/mL
Serratia marcescens; [11]
  MIC S. marcescens: 12.5 µg/mL
Proteus mirabilis; [11]
  MIC P. mirabilis: 50 µg/mL
Moraxella catarrhalis; [11]
  MIC M. catarrhalis: 25 µg/mL
Enterobacter cloacae; [11]
  MIC E. cloacae: 12.5 µg/mL
Aeromonas hydrophila; [11]
  MIC A. hydrophila: 25 µg/mL
Proteus vulgaris; [11]
  MIC P. vulgaris: 25 µg/mL
E. coli DH5α
  MIC: 25 µg/mL
Pseudomonas aeruginosa; [11]
  MIC P. aeruginosa: 25 µg/mL

## PRT710 (DQDECAVYGTCSQTCRNTHGSYTCSCVEGYLMQPDNRSCK; listed as Homo sapiens)
E. coli BL21; 96-well plate, 37° C., 10 h
  MIC E. coli BL21: 12.5 µg/mL
Klebsiella pneumonia; 96-well plate, 37° C., 10 h
  MIC K. pneumonia: 12.5 µg/mL
Citrobacter diversus; 96-well plate, 37° C., 10 h
  MIC C. diversus: 50 µg/mL
Serratia marcescens; 96-well plate, 37° C., 10 h
  MIC S. marcescens: 50 µg/mL
Proteus mirabilis; 96-well plate, 37° C., 10 h
  MIC P. mirabilis: 12.5 µg/mL
Moraxella catarrhalis; 96-well plate, 37° C., 10 h
  MIC M. catarrhalis: 25 µg/mL
Enterobacter cloacae; 96-well plate, 37° C., 10 h
  MIC E. cloacae: 50 µg/mL
Aeromonas hydrophila; 96-well plate, 37° C., 10 h
  MIC A. hydrophila: 12.5 µg/mL
Proteus vulgaris; 96-well plate, 37° C., 10 h
  MIC P. vulgaris: 25 µg/mL
E. coli DH5α
  MIC: 25 µg/mL
Pseudomonas aeruginosa; 96-well plate, 37° C., 10 h
  MIC P. aeruginosa: 50 µg/mL
